Measurements: patent publication US10085449B2, “N-[1-((6-chloropyridin-3-yl)methyl)pyridin-2(1H)-ylidene]-2,2,2- trifluoroacetamide for control of agricultural/horticultural pests” (priority 2010, dated 2018)
Where two headings read alike, the source gives them in different places.

Assays:
Assay in all cases: whole plant or invertebrate
Format in all cases: in vivo
[1] = tested on: diamondback moth; conditions: Plutella xylostella, foliar
Description: (§1) Leaf discs 5.0 cm in diameter were cut from cabbage plants grown in pots, and these were sprayed with solutions of the inventive compounds at a predetermined concentration prepared to 50% acetone/water (containing 0.05% Tween 20). The treated leaf discs were air dried, following which second-instar larvae were released onto the discs. The leaf discs and larvae were then held in an incubation chamber at 25° C. (16-hour period of light, 8-hour dark period). Three days after released, the numbers of live and dead insects were counted, and the mortality was calculated from the following formula. This was a two-replication test. Mortality (%)=[number of dead insects/(number of live insects+number of dead insects)]×100

[2] = tested on: common cutworm; conditions: for Insecticidal effects (mortality), common cutworm third-instar larvae: foliar application; for mortality at 500 ppm: foliar, 72 h
Description: as §1, with “third-instar” for “second-instar”

[3] = tested on: cotton aphid; conditions: Aphis gossypii, foliar
Description: as §1, with “2.0” for “5.0”, “cucumber” for “cabbage”, “first-instar” for “second-instar”

[4] = tested on: small brown planthopper; conditions: Laodelphax striatellus, foliar
Description: as §1, with “Rice seedlings” for “Leaf discs 5.0 cm in diameter were cut from cabbage plants”, “pots” for “pots, and these”, “subjected to the foliar application of” for “sprayed with”, “seedlings” for “leaf discs”, “seedlings.” for “discs.”

[5] = tested on: western flower thrips; conditions: Frankliniella occidentalis, foliar
Description: as §1, with “2.8” for “5.0”, “bean” for “cabbage”, “first-instar” for “second-instar”

[6] = tested on: rice leaf bug; conditions: foliar, 72 h
Description: The treated seedlings were air-dried, then each was placed in a glass cylinder and two second-instar rice leaf bug larvae were released within the same glass cylinder. Following release of the insects, the tube was capped and held in an incubation chamber at 25° C. (16-hour period of light, 8-hour dark period). […] Three days after released, the numbers of live and dead insects were counted, and the mortality was calculated from the following formula. Mortality (%)=[number of dead insects/(number of live insects+number of dead insects)]×100

[7] = tested on: small brown planthopper; conditions: Laodelphax striatellus, in Triticum aestivum, 96 h
Description: Wheat seedling roots 48 hours after sowing were treated with solutions of the inventive compounds at a predetermined concentration prepared to 10% acetone/water. After allowing the roots to absorb the chemical for 72 hours, ten second-instar small brown planthopper larvae were released onto each seedling. The treated seedlings and larvae were then held in an incubation chamber at 25° C. (16-hour period of light, 8-hour dark period). Four days after released, the numbers of live and dead insects were counted, and the mortality was calculated from the following formula. The test was carried out as two replications. Mortality (%)=[number of dead insects/(number of live insects+number of dead insects)]×100

[8] = tested on: small brown planthopper; conditions: Laodelphax striatellus, 72 h; for pest or weed control at 0.005 mg/pot / pest or weed control at 0.01 mg/pot / pest or weed control at 0.05 mg/pot: rice soil drenching, read-out: Small brown planthopper (rice soil drenching), effect; for pest or weed control at 0.005 mg/pot: 0.005 mg/pot (Table 13); for pest or weed control at 0.01 mg/pot: 0.01 mg/pot (Table 13); for pest or weed control at 0.05 mg/pot: 0.05 mg/pot (Table 13); for mortality at 0.05 mg/seedling / mortality at 0.005 mg/pot / mortality at 0.01 mg/pot / mortality at 0.05 mg/pot: soil; for mortality at 0.005 mg/pot / mortality at 0.01 mg/pot / mortality at 0.05 mg/pot: read-out: Insecticidal effects (mortality), small brown planthopper second-instar larvae
Description: Rice seedlings grown in pots were subjected to soil drenching treatment with solutions of the inventive compounds at a predetermined concentration prepared to 10% acetone/water. Three days following treatment, ten second-instar small brown planthopper larvae were released onto each seedling. The treated seedlings and larvae were then held in an incubation chamber at 25° C. (16-hour period of light, 8-hour dark period). Three days after released, the numbers of live and dead insects were counted, and the mortality was calculated from the following formula. The test was carried out as two replications. Mortality (%)=[number of dead insects/(number of live insects+number of dead insects)]×100

[9] = read-out: Insecticidal effects (mortality), diamondback moth second-instar larvae
[10] = read-out: Insecticidal effects (mortality), cotton aphid first-instar larvae
[11] = read-out: Insecticidal effects (mortality), small brown planthopper second-instar larvae
[12] = read-out: Insecticidal effects (mortality), western flower thrips first-instar larvae

Compound | mortality at 100 ppm [1, 9] [%] | mortality at 500 ppm [1, 9] [%] | mortality at 100 ppm ([1]; in Brassica oleracea, 72 h) [%] | mortality at 500 ppm ([1]; in Brassica oleracea, 72 h) [%] | Insecticidal effects (mortality), common cutworm third-instar larvae ([2]; 500 ppm) | mortality at 1.25 ppm [3, 10] [%] | mortality at 5 ppm [3, 10] [%] | mortality at 20 ppm [3, 10] [%] | mortality at 100 ppm [3, 10] [%] | mortality at 20 ppm ([3]; in Cucumis sativus, 72 h) [%] | mortality at 100 ppm ([3]; in Cucumis sativus, 72 h) [%] | mortality at 500 ppm ([5]; 72 h) [%] | mortality at 500 ppm [5, 12] [%] | mortality at 50 ppm [6] [%] | mortality at 0.5 mg/seedling [7, 11] [%] | mortality at 2 mg/seedling [7, 11] [%] | mortality at 20 mg/seedling [7, 11] [%] | pest or weed control at 0.05 mg/pot [8] [%] | mortality at 0.05 mg/seedling [8] [%] | mortality at 0.05 mg/pot [8] [%] | further results
O=C(N=c1ccccn1Cc1cnc(Cl)c(F)c1)C(F)(F)F [Compound 227, N-[1-((6-chloro-5-fluoropyridin-3-yl)methyl)pyridin-2(1H)-ylidene]-2,2,2-trifluoroacetamide] | 100 | 100 | ≥ 80 | ≥ 80 | 100 | 95 | 100 | 100 | 100 | ≥ 80 | ≥ 80 | ≥ 80 | 90 | ≥ 80 | 50 | 75 | 100 | 90 | ≥ 80 | 90 | mortality at 20 ppm [1, 9]: 100%; Insecticidal effects (mortality), common cutworm third-instar larvae ([2]; 100 ppm): 56; mortality at 500 ppm [2]: ≥ 80%; mortality at 500 ppm [3, 10]: 100%; mortality at 500 ppm ([3]; in Cucumis sativus, 72 h): ≥ 80%; mortality at 5 ppm [4, 11]: 100%; mortality at 100 ppm ([4]; in Oryza sativa, 72 h): ≥ 80%; mortality at 100 ppm [5, 12]: 65%; mortality at 20 µg/seedling [7]: ≥ 80%; pest or weed control at 0.005 mg/pot [8]: 75%; pest or weed control at 0.01 mg/pot [8]: 100%; mortality at 0.005 mg/pot [8]: 75%; mortality at 0.01 mg/pot [8]: 100%
O=C(N=c1ccccn1Cc1ccc(Br)nc1)C(F)(F)F [Compound 231, N-[1-((6-bromopyridin-3-yl)methyl)pyridin-2(1H)-ylidene]-2,2,2-trifluoroacetamide] | 100 | – | ≥ 80 | – | 0 | 74 | 100 | 100 | – | ≥ 80 | – | ≥ 80 | 85 | ≥ 80 | 25 | 75 | 100 | 100 | ≥ 80 | 100 | mortality at 20 ppm [1, 9]: 100%; Insecticidal effects (mortality), common cutworm third-instar larvae ([2]; 100 ppm): 0; mortality at 100 ppm [4, 11]: 100%; mortality at 100 ppm [5, 12]: 55%; mortality at 20 µg/seedling [7]: ≥ 80%; pest or weed control at 0.005 mg/pot [8]: 70%; pest or weed control at 0.01 mg/pot [8]: 100%; mortality at 0.005 mg/pot [8]: 70%; mortality at 0.01 mg/pot [8]: 100%
O=C(N=c1ccccn1Cc1ccc(Cl)nc1)C(F)(F)Cl [Compound 239, 2-chloro-N-[1-((6-chloropyridin-3-yl)methyl)pyridin-2(1H)-ylidene]-2,2-difluoroacetamide] | 100 | 100 | ≥ 80 | ≥ 80 | 90 | – | – | 100 | 100 | ≥ 80 | ≥ 80 | – | 40 | ≥ 80 | 100 | 100 | 100 | 100 | ≥ 80 | 100 | mortality at 20 ppm [1, 9]: 100%; mortality at 500 ppm [2]: ≥ 80%; mortality at 500 ppm [3, 10]: 100%; mortality at 500 ppm ([3]; in Cucumis sativus, 72 h): ≥ 80%; mortality at 20 µg/seedling [7]: ≥ 80%; mortality at 0.25 mg/seedling [7, 11]: 100%; pest or weed control at 0.005 mg/pot [8]: 30%; pest or weed control at 0.01 mg/pot [8]: 80%; mortality at 0.005 mg/pot [8]: 30%; mortality at 0.01 mg/pot [8]: 80%
O=C(N=c1ccccn1Cc1ccc(Cl)nc1)C(F)(F)C(F)(F)F [Compound 242, N-[1-((6-chloropyridin-3-yl)methyl)pyridin-2(1H)-ylidene]-2,2,3,3,3-pentafluoropropanamide] | 100 | 100 | ≥ 80 | ≥ 80 | 60 | 35 | 80 | 100 | 100 | ≥ 80 | ≥ 80 | ≥ 80 | 100 | ≥ 80 | 100 | 100 | 100 | 100 | ≥ 80 | 100 | mortality at 100 ppm [5, 12]: 76%
O=C(N=c1ccccn1Cc1cnc(Cl)nc1)C(F)(F)F [Compound 243, N-[1-((2-chloropyrimidin-5-yl)methyl)pyridin-2(1H)-ylidene]-2,2,2-trifluoroacetamide] | 100 | 100 | ≥ 80 | ≥ 80 | 10 | 80 | 100 | – | 100 | ≥ 80 | ≥ 80 | ≥ 80 | 100 | ≥ 80 | 100 | 100 | 100 | 100 | ≥ 80 | 100 | mortality at 500 ppm [3, 10]: 100%; mortality at 500 ppm ([3]; in Cucumis sativus, 72 h): ≥ 80%
